Converted amounts (≈) assume the structure as drawn. Like-named read-outs stand apart in the source and are kept apart here.
How the values were obtained:
MCF-7 (breast cancer) [1] = conditions: values marked b, read-out: IC50 Cancerotoxicity MCF-7; cited from earlier work
[2] = system: WI-38 (human diploid fibroblasts); experiment: MTT cytotoxicity assay, normal cells; type: cell-based; conditions: WI-38 normal cells, MTT, 24-h incubation, mean ± standard error, read-out: IC50 Normotoxicity WI-38
From the text: (§4) The antiproliferative activity of the newly synthesized 1H-benzo[f]chromenes derivatives (4a-q) was examined in three human cancer cell lines: MCF-7 (breast cancer), HCT-116 (human colon cancer), and HepG-2 (hepatocellular carcinoma), as well as the two normal cell lines, HFL-1 (human foetal lung) and WI-38 (human diploid fibroblasts), using the 3-(4,5-dimethylthiazol-2-yl)-2,5-diphenyl tetrazolium bromide (MTT) colorimetric assay[56].
(§5) Compounds 4a-q was initially evaluated for in vitro antitumor activity against three different human cell lines: MCF-7, HCT-116 and HepG-2. In-vitro cytotoxicity evaluation was performed at the Regional Center for Mycology & Biotechnology (RCMP), Al-Azhar University under different concentrations (50, 25, 12.5, 6.25, 3.125, 1.56 and 0 µg/mL); vinblastine and doxorubicin are used as reference cytotoxic compounds.

[3] = system: HepG-2 (hepatocellular carcinoma); conditions: values marked b, read-out: IC50 Cancerotoxicity HepG-2; cited from earlier work
[4] = system: HCT-116 (human colon cancer); conditions: values marked b, read-out: IC50 Cancerotoxicity HCT-116; cited from earlier work
[5] = system: HFL-1 (human foetal lung); experiment: MTT cytotoxicity assay, normal cells; type: cell-based; conditions: HFL1, HFL-1 normal cells, MTT, 24-h incubation, mean ± standard error, read-out: IC50 Normotoxicity HFL-1
From the text: as §4, §5

[6] = system: Bacillus cereus (ATCC 10987); experiment: Agar diffusion antibacterial screening (inhibition zone); type: cell-based; conditions: ATCC10987, B. cereus, 1 mg/mL, Mueller–Hinton agar, read-out: Diameter of inhibition zone
Procedure: (§1) The antibacterial activity of β-enamionitriles (4a-q) was screened using Mueller–Hinton agar medium for bacteria in an agar diffusion methodology. Ciprofloxacin (1 mg/mL) was the reference antibiotic drug used in the analysis of collections that included four gram-positive species of multi drug resistant pathogenic bacteria: Staphylococcus aureus (MRSA) (ATCC 6539), Staphylococcus aureus (ATCC 6538), Bacillus cereus (ATCC 10987), Bacillus subtilis (ATCC 6633), and two gram-negative species of multi drug resistant pathogenic bacteria Klebsiella pneumonia (ATCC 13883) and Escherichia coli (ATCC 8739). […] Using a 1 mg/mL concentration of compounds (4a-q), the minimum zone of inhibition (IZ, the area around the antimicrobial agent where bacterial growth is prevented) was established in mm ± standard deviation beyond the well diameter (6 mm). […] The synthetic compound's inhibitory effects on evaluation against these organisms are depicted in Fig. 9 and Table 1.
(§2) Compound 4a-q was screened for its in vitro antimicrobial activities against pathogenic bacteria species using the standard antibiotics Ampicillin, Gentamycin and Ketoconazole as reference drugs as reported previously. The minimum inhibitory concentration (MIC) was determined as previously reported. The antimicrobial activities were performed at the Regional Centre for Mycology & Biotechnology (RCMP), Al-Azhar University.

[7] = system: Klebsiella pneumonia (ATCC 13883); experiment: as above; type: cell-based; conditions: Klebsiella pneumoniae, ATCC13883, K. pneumonia, 1 mg/mL, Mueller–Hinton agar, read-out: Diameter of inhibition zone
Procedure: as §1, §2

[8] = system: Bacillus subtilis (ATCC 6633); experiment: as above; type: cell-based; conditions: ATCC6633, B. subtilis, 1 mg/mL, Mueller–Hinton agar, read-out: Diameter of inhibition zone
Procedure: as §1, §2

[9] = system: Staphylococcus aureus (ATCC 6538); experiment: as above; type: cell-based; conditions: ATCC6538, S. aureus, 1 mg/mL, Mueller–Hinton agar, read-out: Diameter of inhibition zone
Procedure: as §1, §2

[10] = system: Escherichia coli (ATCC 8739); experiment: as above; type: cell-based; conditions: ATCC8739, E. coli, 1 mg/mL, Mueller–Hinton agar, read-out: Diameter of inhibition zone
Procedure: as §1, §2

[11] = system: Staphylococcus aureus (MRSA) (ATCC 6539); experiment: as above; type: cell-based; conditions: read-out: Diameter of inhibition zone
Procedure: as §1, §2

[12] = system: Staphylococcus aureus (MRSA); experiment: MIC, Mueller Hinton broth resazurin assay; type: cell-based; conditions: 24 h, MH broth resazurin
From the text: (§3) The minimum inhibitory concentration, or MIC, is the lowest concentration needed to stop bacterial growth. When evaluating how well antimicrobial agents work against various bacterial strains, MIC values are crucial. […] The right dosage of the antimicrobial agent to be used in the treatment of bacterial infections can also be determined with the aid of the MIC value. Table 2 and Fig. 10 show the minimum inhibitory concentration (MIC) of the active compound 4 g against various bacterial strains.
as §2

Bacillus cereus = experiment: MIC, Mueller Hinton broth resazurin assay; type: cell-based; conditions: 24 h, MH broth resazurin
From the text: as §3, §2

Escherichia coli = experiment: MIC, Mueller Hinton broth resazurin assay; type: cell-based; conditions: 24 h, MH broth resazurin
From the text: as §3, §2

Klebsiella pneumonia = experiment: MIC, Mueller Hinton broth resazurin assay; type: cell-based; conditions: Klebsiella pneumoniae, 24 h, MH broth resazurin
From the text: as §3, §2

Staphylococcus aureus = experiment: MIC, Mueller Hinton broth resazurin assay; type: cell-based; conditions: 24 h, MH broth resazurin
From the text: as §3, §2

Bacillus subtilis = experiment: MIC, Mueller Hinton broth resazurin assay; type: cell-based; conditions: 24 h, MH broth resazurin
From the text: as §3, §2

[13] = system: HepG-2 (hepatocellular carcinoma); experiment: MTT cytotoxicity assay; type: cell-based; conditions: Homo sapiens, HepG2, MTT, 24-h incubation, mean ± standard error, read-out: IC50 Cancerotoxicity HepG-2
From the text: as §4, §5

MCF-7 (breast cancer) [14] = experiment: MTT cytotoxicity assay; conditions: Homo sapiens, MCF7, 24 h, read-out: IC50 Cancerotoxicity MCF-7
From the text: as §4, §5

[15] = system: HCT-116 (human colon cancer); experiment: MTT cytotoxicity assay; type: cell-based; conditions: MTT, 24-h incubation, mean ± standard error, read-out: IC50 Cancerotoxicity HCT-116
From the text: as §4, §5

COc1ccc2c3c(ccc2c1)OC(N)=C(C#N)C3c1ccc(Cl)cc1 (stereo not shown) [Compound 4d, 3-Amino-1-(4-chlorophenyl)-8-methoxy-1H-benzo[f]chromene-2-carbonitrile]
IC50 (MCF-7 (breast cancer) [1]): 8.6 ± 0.29 µM
IC50 [2]: 165.5 ± 1.3 µM
IC50 [3]: 0.8 ± 0.08 µM
melting point: 246 to 247 °C
IC50 [4]: 6.9 ± 0.97 µM
IC50 [5]: 164.4 ± 1.1 µM
zone of inhibition at 1000 µg/mL [6]: 15 mm
zone of inhibition at 1000 µg/mL [7]: 12 mm
zone of inhibition at 1000 µg/mL [8]: 0 mm
zone of inhibition at 1000 µg/mL [9]: 0 mm
zone of inhibition at 1000 µg/mL [10]: 0 mm
zone of inhibition at 1000 µg/mL [11]: 12 mm

COc1ccc2c3c(ccc2c1)OC(N)=C(C#N)C3c1ccc(F)cc1F (stereo not shown) [Compound 4g, 3-Amino-1-(2,4-difluorophenyl)-8-methoxy-1H-benzo[f]chromene-2-carbonitrile]
MIC [12]: 500 µg/mL (≈ 1370 µM)
MIC (Bacillus cereus): 1000 µg/mL (≈ 2740 µM)
MIC (Escherichia coli): 250 µg/mL (≈ 686 µM)
MIC (Klebsiella pneumonia): 500 µg/mL (≈ 1370 µM)
MIC (Staphylococcus aureus): 1000 µg/mL (≈ 2740 µM)
MIC (Bacillus subtilis): 1000 µg/mL (≈ 2740 µM)
IC50 [13]: 1.9 ± 0.5 µM
IC50 (MCF-7 (breast cancer) [14]): 2.7 ± 0.23 µM
IC50 [2]: 190.1 ± 0.3 µM
melting point: 300 to 301 °C
IC50 [15]: 6 ± 0.11 µM
IC50 [5]: 179.4 ± 0.1 µM
zone of inhibition at 1000 µg/mL [6]: 20 mm
zone of inhibition at 1000 µg/mL [7]: 16 mm
zone of inhibition at 1000 µg/mL [8]: 21 mm
zone of inhibition at 1000 µg/mL [9]: 23 mm
zone of inhibition at 1000 µg/mL [10]: 14 mm
zone of inhibition at 1000 µg/mL [11]: 17 mm

COc1ccc2c3c(ccc2c1)OC(N)=C(C#N)C3c1ccccc1Cl (stereo not shown) [Compound 4b, 3-Amino-1-(2-chlorophenyl)-8-methoxy-1H-benzo[f]chromene-2-carbonitrile]
IC50 [13]: 6.1 ± 0.2 µM
IC50 (MCF-7 (breast cancer) [14]): 3.9 ± 0.18 µM
IC50 [2]: 171 ± 0.2 µM
melting point: 265 to 266 °C
IC50 [15]: 8.6 ± 0.25 µM
IC50 [5]: 198.6 ± 0.1 µM
zone of inhibition at 1000 µg/mL [6]: 14 mm
zone of inhibition at 1000 µg/mL [7]: 13 mm
zone of inhibition at 1000 µg/mL [8]: 0 mm
zone of inhibition at 1000 µg/mL [9]: 0 mm
zone of inhibition at 1000 µg/mL [10]: 12 mm
zone of inhibition at 1000 µg/mL [11]: 13 mm

COc1ccc2c3c(ccc2c1)OC(N)=C(C#N)C3c1ccc(F)cc1 (stereo not shown) [Compound 4a, 3-Amino-1-(4-fluorophenyl)-8-methoxy-1H-benzo[f]chromene-2-carbonitrile]
IC50 (MCF-7 (breast cancer) [1]): 12.7 ± 0.05 µM
IC50 [3]: 1.5 ± 0.01 µM
melting point: 255 to 256 °C
IC50 [4]: 14.2 ± 0.01 µM
zone of inhibition at 1000 µg/mL [6]: 13 mm
zone of inhibition at 1000 µg/mL [7]: 14 mm
zone of inhibition at 1000 µg/mL [8]: 0 mm
zone of inhibition at 1000 µg/mL [9]: 0 mm
zone of inhibition at 1000 µg/mL [10]: 11 mm
zone of inhibition at 1000 µg/mL [11]: 14 mm

COc1ccc2c3c(ccc2c1)OC(N)=C(C#N)C3c1ccc(Br)cc1 (stereo not shown) [Compound 4e, 3-Amino-1-(4-bromophenyl)-8-methoxy-1H-benzo[f]chromene-2-carbonitrile]
IC50 (MCF-7 (breast cancer) [1]): 4.9 ± 0.25 µM
IC50 [2]: 165.3 ± 1.2 µM
IC50 [3]: 1.7 ± 0.13 µM
melting point: 261 to 262 °C
IC50 [4]: 2.2 ± 0.58 µM
IC50 [5]: 189.9 ± 1.1 µM
zone of inhibition at 1000 µg/mL [6]: 14 mm
zone of inhibition at 1000 µg/mL [7]: 10 mm
zone of inhibition at 1000 µg/mL [8]: 0 mm
zone of inhibition at 1000 µg/mL [9]: 0 mm
zone of inhibition at 1000 µg/mL [10]: 0 mm
zone of inhibition at 1000 µg/mL [11]: 12 mm

From PMC11058275, “Targeted potent antimicrobial and antitumor oxygen-heterocyclic-based pyran analogues: synthesis and computational studies” (Scientific Reports, 2024)
